Assay results published in PubChem BioAssay (NCI).
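A five-concentration, 48-hour dose response in 96-well plates underlies each endpoint, interpolated linearly between surrounding concentrations. GI50 = concentration required for 50% inhibition of growth. TGI marks complete inhibition of growth.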

Experiments:
Assay in all cases: inhibition of tumour cell growth, NCI panel, 48 h
786-0 renal = system: 786-0 renal
HOP-62 NSCLC = system: HOP-62 NSCLC
LOX IMVI melanoma = system: LOX IMVI melanoma
M14 melanoma = system: M14 melanoma
MDA-MB-231 breast = system: MDA-MB-231 breast
OVCAR-8 ovarian = system: OVCAR-8 ovarian
UACC-62 melanoma = system: UACC-62 melanoma

Structure (SMILES): C/C(=N\NC(=O)c1ccncc1)c1ccccc1O
- GI50 (786-0 renal): 2.94 µM
- TGI (786-0 renal): 21.3 µM
- GI50 (HOP-62 NSCLC): 3.82 µM
- TGI (HOP-62 NSCLC): > 100 µM
- GI50 (LOX IMVI melanoma): 1.46 µM
- TGI (LOX IMVI melanoma): > 100 µM
- GI50 (M14 melanoma): 4.95 µM
- TGI (M14 melanoma): 89.1 µM
- GI50 (MDA-MB-231 breast): 5.65 µM
- TGI (MDA-MB-231 breast): > 100 µM
- GI50 (OVCAR-8 ovarian): 3.05 µM
- TGI (OVCAR-8 ovarian): > 100 µM
- GI50 (UACC-62 melanoma): 3.04 µM
- TGI (UACC-62 melanoma): 18.9 µM

Structure (SMILES): Cc1cccc(Cc2cnc(NC(=O)CCCOc3ccc(Cl)cc3)s2)c1
- GI50 (786-0 renal): 5.95 µM
- TGI (786-0 renal): > 100 µM
- GI50 (HOP-62 NSCLC): 5.57 µM
- TGI (HOP-62 NSCLC): > 100 µM
- GI50 (LOX IMVI melanoma): 6.8 µM
- TGI (LOX IMVI melanoma): > 100 µM
- GI50 (M14 melanoma): 3.68 µM
- TGI (M14 melanoma): > 100 µM
- GI50 (MDA-MB-231 breast): 21.2 µM
- TGI (MDA-MB-231 breast): > 100 µM
- GI50 (OVCAR-8 ovarian): 27.3 µM
- TGI (OVCAR-8 ovarian): > 100 µM
- GI50 (UACC-62 melanoma): 9.45 µM
- TGI (UACC-62 melanoma): > 100 µM

Structure (SMILES): COC(=O)C(NC(=O)c1ccccc1)c1ccc(OC)c(I)c1 (configuration not stated)
- GI50 (786-0 renal): > 100 µM
- TGI (786-0 renal): > 100 µM
- GI50 (HOP-62 NSCLC): > 100 µM
- TGI (HOP-62 NSCLC): > 100 µM
- GI50 (LOX IMVI melanoma): 46.9 µM
- TGI (LOX IMVI melanoma): > 100 µM
- GI50 (M14 melanoma): 52.3 µM
- TGI (M14 melanoma): > 100 µM
- GI50 (MDA-MB-231 breast): 27.2 µM
- TGI (MDA-MB-231 breast): > 100 µM
- GI50 (OVCAR-8 ovarian): > 100 µM
- TGI (OVCAR-8 ovarian): > 100 µM
- GI50 (UACC-62 melanoma): 52.9 µM
- TGI (UACC-62 melanoma): > 100 µM

Structure (SMILES): CC(=O)OC1CCC2(C)C(=CCC3C4CC(CN5CC5)C(=O)C4(C)CCC32)C1 (configuration not stated)
- GI50 (786-0 renal): 7.91 µM
- TGI (786-0 renal): 20.9 µM
- GI50 (HOP-62 NSCLC): 18.8 µM
- TGI (HOP-62 NSCLC): 33.6 µM
- GI50 (LOX IMVI melanoma): 6.58 µM
- TGI (LOX IMVI melanoma): 18.2 µM
- GI50 (M14 melanoma): 14.2 µM
- TGI (M14 melanoma): 31.7 µM
- GI50 (MDA-MB-231 breast): 11.8 µM
- TGI (MDA-MB-231 breast): 25 µM
- GI50 (OVCAR-8 ovarian): 12.2 µM
- TGI (OVCAR-8 ovarian): 26.2 µM
- GI50 (UACC-62 melanoma): 11.7 µM
- TGI (UACC-62 melanoma): 24.6 µM

Structure (SMILES): Cn1c(=O)c(-c2c(Cl)cccc2Cl)cc2cnc(Nc3ccc(N4CCOCC4)cc3)nc21
- GI50 (786-0 renal): < 0.01 µM
- TGI (786-0 renal): 0.519 µM
- GI50 (HOP-62 NSCLC): < 0.01 µM
- TGI (HOP-62 NSCLC): 0.124 µM
- GI50 (LOX IMVI melanoma): 0.178 µM
- TGI (LOX IMVI melanoma): 1.31 µM
- GI50 (M14 melanoma): < 0.01 µM
- GI50 (MDA-MB-231 breast): < 0.0169 µM
- GI50 (OVCAR-8 ovarian): 1.09 µM
- TGI (OVCAR-8 ovarian): > 100 µM
- GI50 (UACC-62 melanoma): < 0.0131 µM

Structure (SMILES): O=C(/C=C/N1CCN(c2cccc(Cl)c2)CC1)c1ccc(Cl)cc1
- GI50 (786-0 renal): 33.9 µM
- TGI (786-0 renal): > 100 µM
- GI50 (HOP-62 NSCLC): 48.4 µM
- TGI (HOP-62 NSCLC): > 100 µM
- GI50 (LOX IMVI melanoma): 32.3 µM
- TGI (LOX IMVI melanoma): 96.9 µM
- GI50 (M14 melanoma): 19.6 µM
- TGI (M14 melanoma): 42.3 µM
- GI50 (MDA-MB-231 breast): 30 µM
- TGI (MDA-MB-231 breast): > 100 µM
- GI50 (OVCAR-8 ovarian): 34.5 µM
- TGI (OVCAR-8 ovarian): > 100 µM
- GI50 (UACC-62 melanoma): 27.3 µM
- TGI (UACC-62 melanoma): 83.5 µM

Structure (SMILES): COc1cc(-c2nn(-c3cccc(NC(=O)c4cccc(C(F)(F)F)c4)c3)cc2-c2ccncc2)ccc1Cl
- GI50 (786-0 renal): 2.45 µM
- TGI (786-0 renal): > 50 µM
- GI50 (LOX IMVI melanoma): 1.39 µM
- TGI (LOX IMVI melanoma): > 50 µM
- GI50 (M14 melanoma): 1.63 µM
- TGI (M14 melanoma): > 50 µM
- GI50 (MDA-MB-231 breast): 1.24 µM
- TGI (MDA-MB-231 breast): 9.96 µM
- GI50 (OVCAR-8 ovarian): 2 µM
- TGI (OVCAR-8 ovarian): > 50 µM
- GI50 (UACC-62 melanoma): 1.94 µM
- TGI (UACC-62 melanoma): > 50 µM

Structure (SMILES): CCn1c(SC)nnc1-c1cc2c([nH]c3ccccc32)c(-c2cccc(O)c2)n1
- GI50 (786-0 renal): 2.77 µM
- TGI (786-0 renal): 10.9 µM
- GI50 (HOP-62 NSCLC): 2.87 µM
- TGI (HOP-62 NSCLC): 15.8 µM
- GI50 (LOX IMVI melanoma): 2.51 µM
- TGI (LOX IMVI melanoma): 29.1 µM
- GI50 (M14 melanoma): 1.48 µM
- TGI (M14 melanoma): 12.5 µM
- GI50 (MDA-MB-231 breast): 2.43 µM
- TGI (MDA-MB-231 breast): 15.9 µM
- GI50 (OVCAR-8 ovarian): 3.62 µM
- TGI (OVCAR-8 ovarian): 24.5 µM
- GI50 (UACC-62 melanoma): 1.27 µM
- TGI (UACC-62 melanoma): 8.71 µM
